What was measured:
[1] = tested on: macrophage-lipid complex accumulated on the arterial endothelium; experiment: Analysis for fatty streak (macrophage-lipid complex) in the main artery of cholesterol-fed rabbits; assay type: in vivo, New Zealand White rabbits; conditions: 1% cholesterol diet plus 0.1% flavonoid or 1 mg/kg Lovastatin; for area of macrophage-lipid complex accumulated on the arterial endothelium compared to the control group / M-L (macrophage-lipid) complex area: 6 weeks; for layer of macrophage-lipid complex observed on the arterial endothelium (FIGS. 1B-1D): control shows a thick layer; for M-L (macrophage-lipid) complex area: Oil Red O stained area as proportion of total arterial area, control group 35
Description: RC4 diet comprises 7.6% moisture, 22.8% crude protein, 2.8% crude fat, 8.8% crude ash, 14.4% crude cellulose and 43.6% soluble nitrogen-free substances. The rabbits were bred for 6 weeks while being allowed free access to the diets and water. The rabbits bred in (Step 1) were sacrificed and their chest were incised. The main artery was cut out therefrom in a length of about 5 cm downward from the site 1 cm above the aortic valve and the fat surrounding the main artery was removed. The main artery was incised in the middle along the longitudinal axis and pinned to a dish. The moist artery was photographed and, then, staining of fatty streak was carried out in accordance with the method of […]., et al.(J. Lab. Clin. […] A part of the incised main artery was washed three times by 2 min. with anhydrous propylene glycol and stained for 30 min. with a saturated solution of Oil Red O (ORO, Sigma Co.) dissolved in propylene glycol. Thereafter, the artery was washed twice by 3 min. with 85% propylene glycol to remove remaining staining solution and, then washed with physical saline. The artery was photographed and the photograph was traced. The area of stained region (fatty streak region) was determined with an image analyzer (LEICA, Q-600, Germany) and its proportion(%) to the total arterial area was calculated. On the other hand, the other part of the main artery was stained in accordance with hematoxylin-eosin (H&E) and Masson's trichrome staining methods and observed under a microscope to confirm whether the macrophage-lipid complexes were accumulated in the intima, internus, elastic lamina and media.

[2] = Serum GOT and GPT levels in rats on a high-cholesterol diet; assay type: in vivo, Sprague-Dawley rats; conditions: 1% cholesterol diet plus 0.02% naringin or citrus peel extract (0.04% hesperidin equivalent), six weeks
Description: 30 four-week-old Sprague-Dawley rats (Taihan laboratory animal center, Korea) each weighing about 90 to 110 g were evenly divided into three dietary groups by a randomized block design. The rats of the three groups were fed with three different high-cholesterol diets, i.e., AIN-76 laboratory animal diet (ICN Biochemicals, Cleveland, Ohio, U.S.A.) containing 1% cholesterol(Control group), 1% cholesterol plus 0.02% naringin, and 1% cholesterol plus citrus peel extract prepared in Example 2(1) in an amount equivalent to 0.04% hesperidin, respectively.
The effect of administering naringin and citrus peel extract to rats on the function of the liver was examined as follows.
Blood samples were taken from the rats of the three dietary groups and serum GOT (glutamate-oxaloacetate transaminase) and GPT (glutamate-pyruvate transaminase) levels were determined in accordance with the method of Reitman and Frankel (Reitman, S. and J. S. Frankel, Am. J. Clin. Pathol., 28, 56 (1956)). GOT and GPT are synthesized in the liver and heart, and released into blood stream upon the damage of these organs. Accordingly, GOT and GPT are representative markers of the liver-function and high serum GOT and GPT levels mean severe damage of the liver.

[3] = tested on: hepatic cells (fatty liver); experiment: Histopathological observation of the livers of cholesterol-fed rabbits; assay type: in vivo, New Zealand White rabbits; conditions: 1% cholesterol diet plus 0.1% flavonoid or 1 mg/kg Lovastatin, eight weeks, H&E stain
Method: The same procedure as in (Step 1) was repeated except that 40 three-month-old New Zealand White rabbits (Yeonam Horticulture and Animal Husbandry College, Korea) each weighing about 2.5 to 2.6 kg were used in place of the rats, and the rabbits were fed for eight weeks with four different diets, i.e., RC4 diet containing 1% cholesterol (Control group); 1% cholesterol plus 1 mg/kg Lovastatin® (Comparative group); 1% cholesterol plus 0.1% hesperidin; and 1% cholesterol plus 0.1% naringin, respectively.
Thereafter, the livers were separated from the rabbits and the histopathological observations were carried out as follows.
The rabbits were anesthetized with an intramuscular injection of ketamine (75 mg/kg) and subjected to an abdominal incision. […] The fixed liver was washed sufficiently with water, dehydrated stepwise with 70%, 80%, 90% and 100% ethanol and, then, embedded in paraffin. The embedded liver was sectioned in 4 μm thickness with a microtome and stained with hematoxylin and eosin. The stained liver specimen was made transparent with xylene, mounted with permount, and then observed under a microscope to confirm the presence of lesions.

[4] = Serum GOT, GPT and γGTP levels in men given oral naringin; assay type: in vivo, human; conditions: person, oral 10 mg/kg daily, day 68
Method: Naringin was orally administered to a person at a daily dose of 10 mg/kg for 68 days and serum GOT, GPT and γGTP levels were determined just before the administration (day 0), and 45 and 68 days after the administration (day 45 and day 68), respectively. Consequently, serum GOT- levels at day 45 and day 68 decreased by 17%, respectively, in comparison to that of day 0. Serum GPT levels at day 45 and day 68 decreased by 15% and 19%, respectively, in comparison to that of day 0. Further, serum γGTP levels at day 45 and day 68 decreased by 25% and 51%, respectively, in comparison to that of day 0.
On the other hand, naringin was orally administered to a person, who had drunk alcoholic beverages habitually in an amount of 100 cc per day, at a daily dose of 6 mg/kg for 30 days and serum γGTP level was determined just before the administration (day 0) and 30 days after the administration (day 30). Consequently, initial serum γGTP level at day 0 was 129 IU/l, while that of day 30 decreased to 69 IU/l which is within the normal range.

[5] = Blood total cholesterol and triglyceride levels in cholesterol-fed rabbits; assay type: in vivo, New Zealand White rabbits; conditions: 1% cholesterol diet plus 0.1% flavonoid or 1 mg/kg Lovastatin, 6 weeks
Method: RC4 diet comprises 7.6% moisture, 22.8% crude protein, 2.8% crude fat, 8.8% crude ash, 14.4% crude cellulose and 43.6% soluble nitrogen-free substances. The rabbits were bred for 6 weeks while being allowed free access to the diets and water. Further, blood samples were taken from the rabbits and total cholesterol and triglyceride levels were determined in accordance with the same procedure in Example 5.

SMILES | area of macrophage-lipid complex accumulated on the arterial endothelium compared to the control group [1] | layer of macrophage-lipid complex observed on the arterial endothelium (FIGS. 1B-1D) [1] | serum GOT level, lower than that of the control group [2] | serum GPT level, lower than that of the control group [2] [%] | microscopic features of the hepatic cells (FIGS. 2B-2D) [3] | decrease of serum γGTP level in comparison to day 0 [4] [%] | M-L (macrophage-lipid) complex area [1] [%] | Total cholesterol [5] [mg/dL] | Triglyceride [5] [mg/dL]
C[C@@H]1O[C@@H](O[C@H]2[C@H](Oc3cc(O)c4c(c3)O[C@H](c3ccc(O)cc3)CC4=O)O[C@H](CO)[C@@H](O)[C@@H]2O)[C@H](O)[C@H](O)[C@H]1O [naringin] | decreased significantly | no or very thin layers | about 30% | ~10 | normal and the deposition of fat is not observed | 51 |  |  | 
COc1ccc([C@@H]2CC(=O)c3c(O)cc(O)cc3O2)cc1O [hesperetin] | decreased significantly |  |  |  |  |  | 13 | 1150 | 41
COc1ccc([C@@H]2CC(=O)c3c(O)cc(O[C@@H]4O[C@H](CO[C@@H]5O[C@@H](C)[C@H](O)[C@@H](O)[C@H]5O)[C@@H](O)[C@H](O)[C@H]4O)cc3O2)cc1O [hesperidin] | decreased significantly | no or very thin layers |  |  | normal and the deposition of fat is not observed |  | 13.5 | 1130 | 40
CC[C@H](C)C(=O)O[C@H]1C[C@@H](C)C=C2C=C[C@H](C)[C@H](CC[C@@H]3C[C@@H](O)CC(=O)O3)[C@H]21 [Lovastatin, reference compound] | decreased significantly | no or very thin layers |  |  | irregularly arranged and enlarged and a large amount of fat is deposited therein |  |  |  | 
O=C1C[C@@H](c2ccc(O)cc2)Oc2cc(O)cc(O)c21 [naringenin] | decreased significantly |  |  |  |  |  |  |  | 

Source: patent publication US20010014357A1, “Citrus peel extract as inhibitor of ACYL coa-cholesterol-o-acyltransferase, inhibitor of macrophage-lipid complex accumulation on the arterial wall and preventive or treating agent for hepatic diseases” (priority 1997, published 2001)
